Test results published in patent US10501518B2 (priority 2013, dated 2019).
Entries after “also recorded” stand apart in the source; their conditions may differ.

How the values were obtained:
WT human PTHR-1 = molecular target: T1, WT human PTHR-1 (Homo sapiens, UniProt Q03431); assay: cAMP GloSensor dose-response in GP-2.3 cells expressing human PTHR-1; format: cell-based; settings: for cAMP (hPTHR-1) Max: luminescence counts per second relative to PTH(1-34); for cAMP (hPTHR-1) Max / Max: 12-16 minutes after ligand addition; for Fold nM PTH(1-34): EC50 relative to PTH(1-34)
T1 construct: bioactivity of the resulting compound in full-length hPTHR-1 and a truncated version; expressed in transfected cells
T1 sequence (Q03431 27-593): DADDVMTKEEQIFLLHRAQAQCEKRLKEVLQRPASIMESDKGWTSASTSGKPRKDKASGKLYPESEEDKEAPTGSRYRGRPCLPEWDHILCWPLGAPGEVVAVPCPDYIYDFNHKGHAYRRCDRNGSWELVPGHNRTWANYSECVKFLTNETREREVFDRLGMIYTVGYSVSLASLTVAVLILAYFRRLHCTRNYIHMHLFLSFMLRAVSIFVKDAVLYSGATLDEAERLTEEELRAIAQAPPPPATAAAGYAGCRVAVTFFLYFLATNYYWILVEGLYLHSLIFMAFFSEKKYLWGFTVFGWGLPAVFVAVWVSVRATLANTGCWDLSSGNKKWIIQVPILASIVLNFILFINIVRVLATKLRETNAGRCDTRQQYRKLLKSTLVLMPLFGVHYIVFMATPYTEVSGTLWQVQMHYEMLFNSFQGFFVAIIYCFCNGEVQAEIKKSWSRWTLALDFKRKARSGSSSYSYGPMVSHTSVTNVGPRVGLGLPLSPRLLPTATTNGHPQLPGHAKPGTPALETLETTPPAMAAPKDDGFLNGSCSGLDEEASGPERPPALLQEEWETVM
In short: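 Confluent cells preloaded with 0.5 mM d-luciferin at room temperature until luminescence baseline stabilised (30 min), then given varying agonist concentrations. Luminescence time course recorded after α/β-peptide addition. Means ±SEM of n>4 experiments, each in duplicate.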

PTH2R/PTH1R = assay: cAMP response selectivity between PTH2R and PTH1R; format: cell-based; settings: most selective; for cAMP response PTH1R/PTH2R: Table 17
From the text: Selected analogs containing beta-amino acid substitutions selectively signal through one or the other of the two receptors. Without being bound to any underling biological phenomenon or mechanism, PTHR-2 likely serves an alternative function to PTHR-1 as it is highly expressed in the central nervous system. In contrast, PTHR-1 is highly expressed in bone and kidney, but not in the CNS. The analogs disclosed herein are thus useful as therapeutic compounds that a specific agonists or antagonists of PTHR-1 and PTHR-2.

[1] = Calcemic response in mice after subcutaneous injection; format: in vivo; settings: 20 nmol/kg
Experimental: (§1) Compound concentrations were determined by submitting plasma to a cAMP GloSensor assay, quantification of luminescence readout, and conversion to peptide concentration via standard curve. […] See also FIGS. 12A, 12B and 12C.
Mice (C57BL/6, male, age 9-12 weeks) were treated in accordance with the ethical guidelines adopted by Massachusetts General Hospital. […] Blood was withdrawn just prior to injection (t=0) or at times thereafter. Tail vein blood was collected and immediately used for analysis. Blood Ca^2+ concentration was measured with a Chiron Diagnostics model 634 Ca^2+/pH analyzer.

[2] = In vivo pharmacokinetics: peptide content of mouse plasma by cAMP GloSensor assay; settings: mice, subcutaneous injection, 20 nmol/kg
Experimental: as §1
FIG. 12 B is a magnification of FIG. 12A to highlight the data from early time points. FIG. 12 C is a dose-response curve used to convert the raw luminescence time course found in FIG. 12A to the peptide concentration time course found in FIG. 3B. This curve was generated from a single assay run immediately before assessing the raw luminescence time course.
Blood was withdrawn just prior to injection (t=0) or at times thereafter. Tail vein blood was collected and treated with protease inhibitors (aprotinin, leupeptin, EDTA), centrifuged to remove blood cells, mixed with cAMP response assay buffer, and administered to GP2.3 cells. The raw luminescence readouts recorded in this assay were converted to blood peptide concentrations through use of a standard curve relating luminescence response to known peptide concentrations under identical assay conditions.

WT rat PTHR-1 = molecular target: T2, WT rat PTHR-1 (Rattus norvegicus, UniProt P25961); assay: cAMP GloSensor dose-response in GR-35 cells expressing rat PTHR-1; format: cell-based; settings: for cAMP (rPTHR-1) Max / EC50: Table 2; for cAMP (rPTHR-1) Max: luminescence counts per second relative to PTH(1-34); for cAMP (rPTHR-1) Max / Max: 12-16 minutes after ligand addition; for EC50: read-out: cAMP (rPTHR-1) EC50; for Fold nM PTH(1-34) / Max: Table 7; for Fold nM PTH(1-34): EC50 relative to PTH(1-34); for Max: GR-35 cells, mean ± SEM
T2 construct: expressed in transfected cells
T2 sequence (P25961 27-591): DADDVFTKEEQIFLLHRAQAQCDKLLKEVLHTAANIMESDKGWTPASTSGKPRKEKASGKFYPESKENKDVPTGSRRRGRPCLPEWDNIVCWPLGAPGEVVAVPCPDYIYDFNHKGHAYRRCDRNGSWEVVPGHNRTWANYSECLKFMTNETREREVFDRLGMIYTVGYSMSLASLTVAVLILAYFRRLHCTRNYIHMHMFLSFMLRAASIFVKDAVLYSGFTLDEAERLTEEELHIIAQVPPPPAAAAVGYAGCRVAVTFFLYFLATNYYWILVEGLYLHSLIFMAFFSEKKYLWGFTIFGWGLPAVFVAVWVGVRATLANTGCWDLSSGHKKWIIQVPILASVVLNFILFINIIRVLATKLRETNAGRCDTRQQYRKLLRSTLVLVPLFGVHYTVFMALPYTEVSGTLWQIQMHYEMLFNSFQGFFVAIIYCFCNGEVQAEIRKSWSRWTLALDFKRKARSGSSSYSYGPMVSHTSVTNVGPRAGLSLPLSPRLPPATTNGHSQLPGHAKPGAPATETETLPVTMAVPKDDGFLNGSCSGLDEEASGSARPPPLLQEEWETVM

[3] = Table 6, GP-2.3 cells, mean ± SEM

EC50 (WT human PTHR-1; Table 1, GP-2.3 cells, read-out: cAMP (hPTHR-1) EC50) [nM]	cAMP (hPTHR-1) Max (WT human PTHR-1; Table 1)	level / persistence in the mouse bloodstream [2]	cAMP (rPTHR-1) Max (WT rat PTHR-1)	SMILES	Fold nM PTH(1-34) (WT human PTHR-1; Table 6)	Max (WT human PTHR-1; [3])	cAMP response PTH1R/PTH2R (PTH2R/PTH1R)	calcemic response (blood Ca^2+ concentration) [1]	EC50 (WT rat PTHR-1) [nM]	Fold nM PTH(1-34) (WT rat PTHR-1)	Max (WT rat PTHR-1)	cAMP response PTH2R/PTH1R (PTH2R/PTH1R; Table 16)	pEC50 (WT human PTHR-1; [3])
0.11	0.98	prolonged bioavailability	0.78	CC[C@H](C)[C@H](NC(=O)[C@H](CCC(=O)O)NC(=O)[C@H](CO)NC(=O)[C@@H](NC(=O)[C@@H](N)CO)C(C)C)C(=O)N[C@@H](CCC(N)=O)C(=O)N[C@@H](CC(C)C)C(=O)N[C@@H](CCSC)C(=O)N[C@@H](Cc1c[nH]cn1)C(=O)N[C@@H](CC(N)=O)C(=O)N[C@@H](CC(C)C)C(=O)NCC(=O)N[C@@H](CCCCN)C(=O)N[C@@H](Cc1c[nH]cn1)C(=O)N[C@@H](CC(C)C)C(=O)N[C@@H](CC(N)=O)CC(=O)N[C@@H](CO)C(=O)N[C@@H](CCSC)C(=O)N[C@@H](CCC(=O)O)C(=O)N[C@@H](CCCNC(=N)N)CC(=O)N[C@H](C(=O)N[C@@H](CCC(=O)O)C(=O)N[C@@H](Cc1c[nH]c2ccccc12)C(=O)N[C@H](CC(=O)N[C@@H](CCCNC(=N)N)C(=O)N[C@@H](CCCCN)C(=O)N[C@@H](CCCCN)C(=O)N[C@H](CC(=O)N[C@@H](CCC(N)=O)C(=O)N[C@@H](CC(=O)O)C(=O)N[C@H](C(=O)N[C@@H](CCC(N)=O)CC(=O)N[C@@H](CC(N)=O)C(=O)N[C@@H](Cc1ccccc1)C(N)=O)C(C)C)CC(C)C)CC(C)C)C(C)C [B5]	0.63	212 ± 30 luminescence counts per second × 10^−3	43	more transient rise in Ca^2+ concentration relative to PTH(1-34)	1.45	3.49	51 ± 21 luminescence counts per second × 10−3	–	–
–	1.00	consistently lower than the level of B5	1.00	CC[C@H](C)[C@H](NC(=O)[C@H](CCC(=O)O)NC(=O)[C@H](CO)NC(=O)[C@@H](NC(=O)[C@@H](N)CO)C(C)C)C(=O)N[C@@H](CCC(N)=O)C(=O)N[C@@H](CC(C)C)C(=O)N[C@@H](CCSC)C(=O)N[C@@H](Cc1cnc[nH]1)C(=O)N[C@@H](CC(N)=O)C(=O)N[C@@H](CC(C)C)C(=O)NCC(=O)N[C@@H](CCCCN)C(=O)N[C@@H](Cc1cnc[nH]1)C(=O)N[C@@H](CC(C)C)C(=O)N[C@@H](CC(N)=O)C(=O)N[C@@H](CO)C(=O)N[C@@H](CCSC)C(=O)N[C@@H](CCC(=O)O)C(=O)N[C@@H](CCCN=C(N)N)C(=O)N[C@H](C(=O)N[C@@H](CCC(=O)O)C(=O)N[C@@H](Cc1c[nH]c2ccccc12)C(=O)N[C@@H](CC(C)C)C(=O)N[C@@H](CCCN=C(N)N)C(=O)N[C@@H](CCCCN)C(=O)N[C@@H](CCCCN)C(=O)N[C@@H](CC(C)C)C(=O)N[C@@H](CCC(N)=O)C(=O)N[C@@H](CC(=O)O)C(=O)N[C@H](C(=O)N[C@@H](Cc1cnc[nH]1)C(=O)N[C@@H](CC(N)=O)C(=O)N[C@@H](Cc1ccccc1)C(=O)O)C(C)C)C(C)C [PTH(1-34), reference compound]	–	217 ± 20 luminescence counts per second × 10^−3	0.9	transient rise in the blood concentration of Ca^2+, which peaks after about one hour	–	–	65 ± 31 luminescence counts per second × 10−3	1.1	–

SMILES	EC50 (WT human PTHR-1; Table 1, GP-2.3 cells, read-out: cAMP (hPTHR-1) EC50) [nM]	cAMP (hPTHR-1) Max (WT human PTHR-1; Table 1)	level / persistence in the mouse bloodstream [2]	cAMP (rPTHR-1) Max (WT rat PTHR-1)	Fold nM PTH(1-34) (WT human PTHR-1; Table 6)	Max (WT human PTHR-1; [3])	cAMP response PTH1R/PTH2R (PTH2R/PTH1R)	calcemic response (blood Ca^2+ concentration) [1]	EC50 (WT rat PTHR-1) [nM]	Fold nM PTH(1-34) (WT rat PTHR-1)	Max (WT rat PTHR-1)	cAMP response PTH2R/PTH1R (PTH2R/PTH1R; Table 16)	pEC50 (WT human PTHR-1; [3])
CC[C@H](C)[C@H](NC(=O)[C@H](CCC(=O)O)NC(=O)[C@H](CO)NC(=O)[C@@H](NC(=O)[C@@H](N)CO)C(C)C)C(=O)N[C@@H](CCC(N)=O)C(=O)N[C@@H](CC(C)C)C(=O)N[C@@H](CCSC)C(=O)N[C@@H](Cc1cnc[nH]1)C(=O)N[C@@H](CC(N)=O)C(=O)N[C@@H](CC(C)C)C(=O)NCC(=O)N[C@@H](CCCCN)C(=O)N[C@H](CC(=O)N[C@@H](CC(C)C)C(=O)N[C@@H](CC(N)=O)C(=O)N[C@@H](CO)C(=O)N[C@@H](CCSC)CC(=O)N[C@@H](CCC(=O)O)C(=O)N[C@@H](CCCNC(=N)N)C(=O)N[C@H](C(=O)N[C@@H](CCC(=O)O)CC(=O)N[C@@H](Cc1c[nH]c2ccccc12)C(=O)N[C@@H](CC(C)C)C(=O)N[C@@H](CCCNC(=N)N)C(=O)N[C@@H](CCCCN)CC(=O)N[C@@H](CCCCN)C(=O)N[C@@H](CC(C)C)C(=O)N[C@@H](CCC(N)=O)C(=O)N[C@@H](CC(=O)O)CC(=O)N[C@H](C(=O)N[C@@H](Cc1cnc[nH]1)C(=O)N[C@@H](CC(N)=O)C(=O)N[C@H](CC(N)=O)Cc1ccccc1)C(C)C)C(C)C)Cc1c[nH]c2ccccc12 [D6]	–	0.87	persists even longer in the bloodstream than does B5; also recorded: persists much longer in the mouse bloodstream than does PTH(1-34)	0.76	0.76	189 ± 29 luminescence counts per second × 10^−3	33	sustained, with no diminution six hours after injection	0.33	0.79	50 ± 15 luminescence counts per second × 10−3	–	9.89 ± 0.08
